For orientation: Ki means the equilibrium dissociation constant of an inhibitor or competing ligand from its target. A lower Ki goes with tighter binding.

Assay [1] addresses T1, Serine protease 1 (Bos taurus, UniProt P00760).
T1 sequence (P00760 whole entry): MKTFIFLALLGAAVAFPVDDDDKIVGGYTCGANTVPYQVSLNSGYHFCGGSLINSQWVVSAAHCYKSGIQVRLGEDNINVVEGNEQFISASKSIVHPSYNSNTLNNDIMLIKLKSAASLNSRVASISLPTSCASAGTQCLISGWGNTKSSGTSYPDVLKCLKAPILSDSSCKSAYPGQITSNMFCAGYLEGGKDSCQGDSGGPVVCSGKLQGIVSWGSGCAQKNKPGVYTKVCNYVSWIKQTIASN
Description: Binding affinity towards trypsin.

For assay [2], the target named is Coagulation factor X (Homo sapiens, UniProt P00742). Description: Binding affinity towards Coagulation factor Xa.
Chain of Coagulation factor X (P00742 41-179 limits assumed): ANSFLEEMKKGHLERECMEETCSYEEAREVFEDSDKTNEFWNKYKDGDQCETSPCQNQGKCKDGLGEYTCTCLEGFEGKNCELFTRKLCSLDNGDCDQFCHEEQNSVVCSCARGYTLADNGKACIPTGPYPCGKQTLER
Chain of Coagulation factor X (P00742 235-488 limits assumed): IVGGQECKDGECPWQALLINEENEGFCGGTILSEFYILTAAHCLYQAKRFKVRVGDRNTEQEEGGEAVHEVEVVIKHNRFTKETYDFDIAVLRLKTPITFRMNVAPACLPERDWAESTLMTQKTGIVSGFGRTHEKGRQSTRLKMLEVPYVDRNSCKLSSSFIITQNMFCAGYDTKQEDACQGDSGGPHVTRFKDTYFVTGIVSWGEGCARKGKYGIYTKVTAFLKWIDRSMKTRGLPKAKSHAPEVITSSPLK
Assay [3] concerns the target Prothrombin (Bos taurus, UniProt P00735). Description: Binding affinity towards thrombin.

Regarding `CC(=O)N1CCN(C(=O)[C@H](Cc2cccc(C(=N)N)c2)NS(=O)(=O)c2ccc3ccccc3c2)CC1`, the results for the Ki in assay [1] and in assay [2] were 0.141 µM and 48 µM, respectively.
Take `N=C(N)c1cccc(C[C@H](NS(=O)(=O)c2ccc3ccccc3c2)C(=O)N2CCC(C(=O)O)CC2)c1`: the Ki is 0.579 µM in assay [1], 43.4 µM in assay [2] and 0.57 µM in assay [3].
As for `N=C(N)c1cccc(C[C@H](NS(=O)(=O)c2ccc3ccccc3c2)C(=O)N2CCCC[C@@H]2C(=O)O)c1`, the results for the Ki in assay [1], in assay [2] and in assay [3] were 0.631 µM, 38 µM and 0.26 µM, respectively.
With `CC(C)c1cc(C(C)C)c(S(=O)(=O)N[C@@H](Cc2cccc(C(=N)N)c2)C(=O)N2CCC[C@H](C(=O)O)C2)c(C(C)C)c1`, the Ki was 2.4 µM in assay [1] and 13 µM in assay [2].
Consider `N=C(N)c1cccc(C[C@H](NS(=O)(=O)c2ccc3ccccc3c2)C(=O)C(=O)O)c1`, for which the Ki was 118 µM in assay [1], 130 µM in assay [2] and 30 µM in assay [3].
Regarding `N=C(N)c1cccc(C[C@H](NS(=O)(=O)c2ccc3ccccc3c2)C(=O)N2CCC[C@H]2C(=O)O)c1`, the values for the inhibitory constant (Ki) in assay [1] and in assay [2] were 16 µM and 130 µM, respectively.
Regarding `N=C(N)c1cccc(C[C@H](NS(=O)(=O)c2ccc3ccccc3c2)C(=O)N2CC(C(=O)O)=Cc3ccccc32)c1`, the Ki in assay [1] was 31 µM; in assay [2], 41 µM.
As to `Cc1c(C)c(S(=O)(=O)N[C@@H](Cc2cccc(C(=N)N)c2)C(=O)N2CCC(C)CC2)c(C)c2c1OC(C)(C)CC2`, the figures for the Ki in assay [1], in assay [2] and in assay [3] were 0.729 µM, 80 µM and 0.034 µM, respectively.
Take `COc1cc(C)c(S(=O)(=O)N[C@@H](Cc2cccc(C(=N)N)c2)C(=O)N2CCC(C)CC2)c(C)c1C`: the inhibition constant (Ki) in assay [1] is 0.78 µM; in assay [2], 100 µM; in assay [3], 0.0889 µM.
As to `CNC(=O)[C@H](Cc1cccc(C(=N)N)c1)NS(=O)(=O)c1c(C)cc(OC)c(C)c1C`, the results for the Ki in assay [1], in assay [2] and in assay [3] were 140 µM, 190 µM and 17 µM, respectively.
Consider `N=C(N)c1cccc(C[C@H](NS(=O)(=O)c2ccc3ccccc3c2)C(=O)N2CCC(C=O)CC2)c1`, for which the Ki in assay [1] was 0.22 µM; in assay [2], 19 µM; in assay [3] it was 0.037 µM.
For the compound `CNC(=O)[C@H]1CCCCN1C(=O)[C@H](Cc1cccc(C(=N)N)c1)NS(=O)(=O)c1ccc2ccccc2c1`, the Ki in assay [1] was 7.94 µM; in assay [2], 57 µM; in assay [3], 2.3 µM.
Turning to `CNC(=O)[C@H](Cc1cccc(C(=N)N)c1)NS(=O)(=O)c1c(C)c(C)c2c(c1C)CCC(C)(C)O2`, the Ki was 32 µM in assay [1] and 10 µM in assay [2].
In the case of `N=C(N)c1cccc(C[C@H](NS(=O)(=O)c2ccc3ccccc3c2)C(=O)N2CCCCC2)c1`, the Ki in assay [2] was 38 µM; in assay [3] it was 0.0646 µM.
`COC(=O)[C@H]1CCCN(C(=O)[C@H](Cc2cccc(C(=N)N)c2)NS(=O)(=O)c2ccc3ccccc3c2)C1`: the Ki is 0.389 µM in assay [1], 18 µM in assay [2] and 0.151 µM in assay [3].
As for `N=C(N)c1cccc(C[C@H](NS(=O)(=O)c2ccc3ccccc3c2)C(=O)N2CCCCCC2)c1`, the Ki in assay [1] was 0.55 µM; in assay [2], 26 µM; in assay [3], 0.021 µM.
In the same order, the values of `CC1CCN(C(=O)[C@H](Cc2cccc(C(=N)N)c2)NS(=O)(=O)c2c(C(C)C)cc(C(C)C)cc2C(C)C)CC1` are 0.69 µM, 2 µM and 0.0741 µM.
Regarding `COC(=O)[C@H]1Cc2ccccc2CN1C(=O)[C@H](Cc1cccc(C(=N)N)c1)NS(=O)(=O)c1ccc2ccccc2c1`, the Ki was 1.2 µM in assay [1], 27 µM in assay [2] and 0.2 µM in assay [3].
Turning to `Cc1ccc(S(=O)(=O)N[C@@H](Cc2cccc(C(=N)N)c2)C(=O)N2CCCCC2)cc1`, the Ki in assay [2] was 15.1 µM; in assay [3], 0.34 µM.
As for `CS(=O)(=O)N1CCN(C(=O)[C@H](Cc2cccc(C(=N)N)c2)NS(=O)(=O)c2ccc3ccccc3c2)CC1`, the Ki was 0.19 µM in assay [1] and 22 µM in assay [2].
On to `CC1CCN(C(=O)[C@H](Cc2cccc(C(=N)N)c2)NS(=O)(=O)c2cccc3cccnc23)CC1`, for which the Ki in assay [2] is 180 µM; in assay [3], 0.34 µM.
Turning to `CC1CCN(C(=O)[C@H](Cc2cccc(C(=N)N)c2)NS(=O)(=O)c2ccc(C(C)(C)C)cc2)CC1`, the Ki in assay [1] was 0.2 µM; in assay [2] it was 12 µM; in assay [3] it was 0.005 µM.
As to `CS(=O)(=O)N1CCN(C(=O)[C@H](Cc2cccc(C(=N)N)c2)NS(=O)(=O)c2cccc3ccccc23)CC1`, the Ki in assay [2] is 9.71 µM; in assay [3] it was 0.026 µM.
Consider `CC(C)OC(=O)[C@H]1CCCN(C(=O)[C@H](Cc2cccc(C(=N)N)c2)NS(=O)(=O)c2ccc3ccccc3c2)C1`, for which the values for the Ki in assay [1], in assay [2] and in assay [3] were 0.427 µM, 16 µM and 0.511 µM, respectively.
Taken in the same sequence, the figures for `N=C(N)c1cccc(C[C@H](NS(=O)(=O)c2ccc3ccccc3c2)C(=O)N2CCCc3ccccc32)c1` were 1.51 µM, 2.3 µM and 0.12 µM.
In the same order, the values of `N=C(N)c1cccc(C[C@H](NS(=O)(=O)c2ccc3ccccc3c2)C(=O)N2CCC[C@H](C(=O)NCc3ccccc3)C2)c1` are 0.12 µM, 17 µM and 0.28 µM.
For `CC(C)(C)c1ccc(S(=O)(=O)N[C@@H](Cc2cccc(C(=N)N)c2)C(=O)N2CCN(S(C)(=O)=O)CC2)cc1`, the figures for the Ki in assay [1] and in assay [3] were 0.16 µM and 0.00427 µM, respectively.
As to `Cc1ccc(S(=O)(=O)N[C@@H](Cc2cccc(C(=N)N)c2)C(=O)N2CCCC2)cc1`, the Ki in assay [1] is 2.2 µM; in assay [2] it was 76 µM; in assay [3] it was 0.35 µM.
In the case of `CC1CCN(C(=O)[C@@H](N)Cc2cccc(C(=N)N)c2)CC1`, the Ki in assay [1] is 29 µM; in assay [2] it was 230 µM.
Take `CC(C)c1cc(C(C)C)c(S(=O)(=O)N[C@@H](Cc2cccc(C(=N)N)c2)C(=O)N2CCC[C@H](C(=O)OCc3ccccc3)C2)c(C(C)C)c1`: the inhibition constant (Ki) is 0.851 µM in assay [1], 0.899 µM in assay [2] and 0.899 µM in assay [3].
On to `CC1CCN(C(=O)[C@H](Cc2cccc(C(=N)N)c2)NS(=O)(=O)c2ccc3ccccc3c2)CC1`, for which the Ki in assay [2] is 41 µM.
As for `CS(=O)(=O)N1CCN(C(=O)[C@@H](N)Cc2cccc(C(=N)N)c2)CC1`, the Ki in assay [1] is 29 µM; in assay [2], 1000 µM; in assay [3] it was 13 µM.
On to `CNC(=O)[C@H](Cc1cccc(C(=N)N)c1)NS(=O)(=O)c1c(C)cc(C)cc1C`, for which the Ki in assay [1] was 1000 µM; in assay [2], 640 µM.
As for `CC(C)NC(=O)[C@H](Cc1cccc(C(=N)N)c1)NS(=O)(=O)c1ccc2ccccc2c1`, the Ki is 16 µM in assay [1], 360 µM in assay [2] and 6.19 µM in assay [3].
In the same order, the values of `CC1CCN(C(=O)[C@H](Cc2cccc(C(=N)N)c2)NC(=O)OC(C)(C)C)CC1` are 14.1 µM, 64.6 µM and 1.2 µM.
In the same order, the values of `N=C(N)c1cccc(C[C@H](NS(=O)(=O)c2ccc3ccccc3c2)C(=O)N2CCC(N3CCCCC3)CC2)c1` are 1 µM, 22 µM and 15.1 µM.

The values are drawn from ChEMBL document CHEMBL1132189, “Three-dimensional quantitative structure-activity relationship analyses using comparative molecular field analysis and comparative molecular similarity indices analysis to elucidate selectivity differences of inhibitors binding to trypsin, thrombin, and factor Xa” (J Med Chem, 1999).
